# In EP4810040A2, “INHIBITORS OF APOL1 AND METHODS OF USING SAME” (priority 2020, dated 2022):
# Target: T1, APOL1 G1 (Homo sapiens, UniProt O14791, I384M/S342G)
# T1 sequence (O14791 28-398 S342G/I384M): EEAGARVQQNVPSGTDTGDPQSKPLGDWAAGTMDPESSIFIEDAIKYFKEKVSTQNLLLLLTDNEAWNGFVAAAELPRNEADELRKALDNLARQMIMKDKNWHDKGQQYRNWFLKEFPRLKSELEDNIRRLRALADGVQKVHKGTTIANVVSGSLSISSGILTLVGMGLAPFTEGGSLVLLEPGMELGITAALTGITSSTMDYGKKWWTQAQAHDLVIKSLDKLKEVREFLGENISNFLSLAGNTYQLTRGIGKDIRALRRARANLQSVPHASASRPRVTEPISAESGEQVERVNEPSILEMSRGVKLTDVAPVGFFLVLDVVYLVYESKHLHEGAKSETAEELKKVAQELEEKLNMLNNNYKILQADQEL
# Experiment: MultiTox-Fluor Multiplex Cytotoxicity Assay, tet-inducible APOL1 G1 T-REx-HEK293 cells
# Assay type: cell-based
# Parameters: expressed in transfected cells; host or cells: T-REx HEK293, clone G1 DC3.25 (pAAVS1-Puro-APOL1 G1)
# Settings: for IC90: HEK293, Multi-Tox Assay, APOL1 variant (G0/G1/G2) of the HEK293 cells not given, read-out: Multi-Tox Assay IC90; for Multi-Tox Assay Max Activity (%): APOL1 variant not given
# Method: The MultiTox-Fluor Multiplex Cytotoxicity Assay is a single-reagent-addition, homogeneous, fluorescence assay that measures the number of live and dead cells simultaneously in culture wells. The assay measures cell viability and cytotoxicity by detecting two distinct protease activities. The live-cell protease activity is restricted to intact viable cells and is measured using a fluorogenic, cell-permeant peptide glycyl-phenylalanylamino fluorocoumarin (GF-AFC) substrate. The substrate enters intact cells, where it is cleaved to generate a fluorescent signal proportional to the number of living cells. […] A second, cell-impermeant, fluorogenic peptide substrate (bis-AAF-R110 Substrate) is used to measure dead-cell protease that has been released from cells that have lost membrane integrity. A ratio of dead to live cells is used to normalize data.
# Briefly, the tet-inducible transgenic APOL1 T-REx-HEK293 cell lines were incubated with 50 ng/mL tet to induce APOL1 in the presence of 3-(2-(4-fluorophenyl)-1H-indol-3-yl)-N-((3S,4R)-4-hydroxy-2-oxopyrrolidin-3-yl)propenamide at […], 0.0045, 0.0015, 0.0005 µM in duplicate for 24 hours in a humidified 37°C incubator. The MultiTox reagent was added to each well and placed back in the incubator for an additional 30 minutes. The plate was read on the EnVision plate reader. A ratio of dead to live cells was used to normalize, and data was imported, analyzed and fit using Genedata Screener (Basel, Switzerland) software. Data was normalized using percent of control, no tet (100% viability), and 50 ng/mL tet treated (0% viability),and fit using Smart Fit. The reagents, methods, and complete protocol for the MultiTox assay are described below. Table 42. Reagents Used in the Multi-Tox Assay
# Human embryonic kidney (HEK293) cell lines containing a tet-inducible expression system (T-REx™; Invitrogen, Carlsbad, CA) and Adeno-associated virus site 1 pAA VS1-Puro-APOL1 G0 or pAAVS1-Puro-APOL1 G1 or pAAVS1-Puro-APOL1 G2 Clones G0 DC2.13, G1 DC3.25, and G2 DC4.44 were grown in a T-225 flask at ~90% confluency in cell growth media (DMEM, 10% Tet-free FBS, 2 mM L-glutamine, 100 Units/mL penicillin-streptomycin, 5 µg/mL blasticidin S HCl, 1 µg/mL puromycin dihydrochloride). Cells were washed with DPBS and then trypsinized to dissociate from the flask. Media was used to quench the trypsin, cells were then pelleted at 200g and resuspended in fresh cell assay media (DMEM, 2% Tet-free FBS, 2 mM L-glutamine, 100 Units/mL penicillin-streptomycin). Cells were counted and diluted to 1.17 x 10^6 cells/mL. 20 µL of cells (23,400/well) were dispensed to every well of a 384-well Poly-D-Lysine coated plate using the Multidrop dispenser. The plates were then incubated at room temperature for one hour.
# Tetracycline is needed to induce APOL1 expression. 1 mg/mL tet stock in water was diluted to 250 ng/mL (5X) in cell assay media. 60 µL of cell assay media (no tet control) was dispensed in columns 1 and 24, and 60 µL of 5X tet was dispensed in 384-PP-round bottom plate in columns 2 to 23 with the Multidrop dispenser.
# Assay ready plates from the Global Compound Archive were ordered using template 384_APOL1Cell_DR10n2_50uM_v3. Compounds were dispensed at 200 nL in DMSO. The final top concentration was 10 µM with a 10 point 3-fold dilution in duplicate in the MultiTox assay.
# 20 µL were transferred from the 5X tet plate to the ARP and mixed, then 5 µL of 5X tet and the compounds were transferred to the cell plate and mixed using the Bravo. The cell plate was placed in the humidified 37°C 5% CO2 incubator for 24 hours.
# The MultiTox-Fluor Multiplex Cytotoxicity Assay was performed in accordance with the manufacturer's protocol. […]
structure (smiles),measurement,value
C[C@H]1C[C@@]2(C[C@@H](c3cnn4ccccc34)N1)OCCc1cc(Cl)sc12 (racemic) [Compound 117],IC90,50 to 500 nM
C[C@H]1C[C@@]2(C[C@@H](c3ccn(C)n3)N1)OCCc1cc(Cl)sc12 (racemic) [Compound 118],IC90,50 to 500 nM
same,Multi-Tox Assay Max Activity (%),99.3%
C[C@H]1C[C@@]2(C[C@@H](c3cc(C4CC4)n[nH]3)N1)OCCc1cc(Cl)sc12 (racemic) [Compound 120],IC90,50 to 500 nM
C[C@H]1C[C@@]2(C[C@@H](c3ccc[nH]c3=O)N1)OCCc1cc(Cl)sc12 (racemic) [Compound 121],IC90,50 to 500 nM
C[C@H]1C[C@@]2(C[C@@H](c3ccc(C(F)(F)F)nc3)N1)OCCc1cc(Cl)sc12 (racemic) [Compound 123],IC90,50 to 500 nM
same,Multi-Tox Assay Max Activity (%),100.0%
C[C@H]1C[C@@]2(C[C@@H](c3cn(C)c(=O)n(C)c3=O)N1)OCCc1cc(Cl)sc12 (racemic) [Compound 124],IC90,50 to 500 nM
same,Multi-Tox Assay Max Activity (%),99.3%
Cc1cc(O)ncc1[C@@H]1C[C@]2(C[C@H](C)N1)OCCc1cc(Cl)sc12 (racemic) [Compound 125],IC90,50 to 500 nM
same,Multi-Tox Assay Max Activity (%),99.7%
Cc1cccc([C@@H]2C[C@]3(C[C@H](C)N2)OCCc2cc(Cl)sc23)n1 (racemic) [Compound 126],IC90,50 to 500 nM
same,Multi-Tox Assay Max Activity (%),99.4%
C[C@H]1C[C@@]2(C[C@@H](c3ccnc(N(C)C)n3)N1)OCCc1cc(Cl)sc12 (racemic) [Compound 127],IC90,50 to 500 nM
same,Multi-Tox Assay Max Activity (%),99.3%
CCc1nc([C@@H]2C[C@]3(C[C@H](C)N2)OCCc2cc(Cl)sc23)c[nH]1 (racemic) [Compound 128],IC90,50 to 500 nM
same,Multi-Tox Assay Max Activity (%),99.3%
C[C@H]1C[C@@]2(C[C@@H](c3cnc(N4CCN(C)CC4)nc3)N1)OCCc1cc(Cl)sc12 (racemic) [Compound 129],IC90,50 to 500 nM
same,Multi-Tox Assay Max Activity (%),100.0%
C[C@H]1C[C@@]2(C[C@@H](c3c[nH]c(C4CC4)n3)N1)OCCc1cc(Cl)sc12 (racemic) [Compound 130],IC90,50 to 500 nM
C[C@H]1C[C@@]2(C[C@@H](c3cc4n(n3)CCCO4)N1)OCCc1cc(Cl)sc12 (racemic) [Compound 131],IC90,50 to 500 nM
same,Multi-Tox Assay Max Activity (%),99.3%
Cc1nocc1[C@@H]1C[C@]2(C[C@H](C)N1)OCCc1cc(Cl)sc12 (racemic) [Compound 132],IC90,50 to 500 nM
same,Multi-Tox Assay Max Activity (%),99.3%
C[C@H]1C[C@@]2(C[C@@H](c3cn(CC(N)=O)nn3)N1)OCCc1cc(Cl)sc12 (racemic) [Compound 133],IC90,50 to 500 nM
same,Multi-Tox Assay Max Activity (%),99.7%
Cc1cnc([C@@H]2C[C@]3(C[C@H](C)N2)OCCc2cc(Cl)sc23)o1 (racemic) [Compound 134],IC90,50 to 500 nM
same,Multi-Tox Assay Max Activity (%),99.2%
Cc1c([C@@H]2C[C@]3(C[C@H](C)N2)OCCc2cc(Cl)sc23)cnn1C (racemic) [Compound 136],IC90,50 to 500 nM
same,Multi-Tox Assay Max Activity (%),98.7%
COc1cc(O)cc([C@@H]2C[C@]3(C[C@H](C)N2)OCCc2cc(Cl)sc23)c1 (racemic) [Compound 137],IC90,50 to 500 nM
same,Multi-Tox Assay Max Activity (%),98.7%
Cc1cc([C@@H]2C[C@]3(C[C@H](C)N2)OCCc2cc(Cl)sc23)nc(N(C)C)n1 (racemic) [Compound 138],IC90,50 to 500 nM
same,Multi-Tox Assay Max Activity (%),98.0%
Cc1ccnc([C@@H]2C[C@]3(C[C@H](C)N2)OCCc2cc(Cl)sc23)c1 (racemic) [Compound 139],IC90,50 to 500 nM
same,Multi-Tox Assay Max Activity (%),98.0%
C[C@H]1C[C@@]2(C[C@@H](c3cnc(C4CCOCC4)o3)N1)OCCc1cc(Cl)sc12 (racemic) [Compound 140],IC90,50 to 500 nM
same,Multi-Tox Assay Max Activity (%),99.7%
C[C@H]1C[C@@]2(C[C@@H](c3cccc4[nH]c(=O)oc34)N1)OCCc1cc(Cl)sc12 (racemic) [Compound 141],IC90,50 to 500 nM
same,Multi-Tox Assay Max Activity (%),96.3%
Cc1nn(C)cc1[C@@H]1C[C@]2(C[C@H](C)N1)OCCc1cc(Cl)sc12 (racemic) [Compound 142],IC90,50 to 500 nM
Cc1nc([C@@H]2C[C@]3(C[C@H](C)N2)OCCc2cc(Cl)sc23)oc1C (racemic) [Compound 144],IC90,> 500 nM
same,Multi-Tox Assay Max Activity (%),98.0%
COc1ccnc([C@@H]2C[C@]3(C[C@H](C)N2)OCCc2cc(Cl)sc23)n1 (racemic) [Compound 145],IC90,> 500 nM
same,Multi-Tox Assay Max Activity (%),97.7%
C[C@H]1C[C@@]2(C[C@@H](c3cccc(S(C)(=O)=O)c3)N1)OCCc1cc(Cl)sc12 (racemic) [Compound 146],IC90,50 to 500 nM
same,Multi-Tox Assay Max Activity (%),97.0%
C[C@H]1C[C@@]2(C[C@@H](c3cccc(S(N)(=O)=O)c3)N1)OCCc1cc(Cl)sc12 (racemic) [Compound 147],IC90,> 500 nM
same,Multi-Tox Assay Max Activity (%),92.3%
C[C@H]1C[C@@]2(C[C@@H](c3cccc(-c4cn[nH]c4)c3)N1)OCCc1cc(Cl)sc12 (racemic) [Compound 148],IC90,50 to 500 nM
same,Multi-Tox Assay Max Activity (%),97.0%
C[C@H]1C[C@@]2(C[C@@H](c3cnc4n3CCOC4)N1)OCCc1cc(Cl)sc12 (racemic) [Compound 149],IC90,> 500 nM
same,Multi-Tox Assay Max Activity (%),95.7%
Cc1nc([C@@H]2C[C@]3(C[C@H](C)N2)OCCc2cc(Cl)sc23)[nH]c1C (racemic) [Compound 150],IC90,> 500 nM
same,Multi-Tox Assay Max Activity (%),96.3%
C[C@H]1C[C@@]2(C[C@@H](c3cccc(=O)[nH]3)N1)OCCc1cc(Cl)sc12 (racemic) [Compound 151],IC90,> 500 nM
same,Multi-Tox Assay Max Activity (%),96.2%
C[C@H]1C[C@@]2(C[C@@H](c3ccnn3C)N1)OCCc1cc(Cl)sc12 (racemic) [Compound 152],IC90,> 500 nM
same,Multi-Tox Assay Max Activity (%),98.0%
CCc1c[nH]c([C@@H]2C[C@]3(C[C@H](C)N2)OCCc2cc(Cl)sc23)n1 (racemic) [Compound 153],IC90,> 500 nM
same,Multi-Tox Assay Max Activity (%),96.0%
COc1nn(C)cc1[C@@H]1C[C@]2(C[C@H](C)N1)OCCc1cc(Cl)sc12 (racemic) [Compound 154],IC90,> 500 nM
same,Multi-Tox Assay Max Activity (%),94.0%
Cc1coc([C@@H]2C[C@]3(C[C@H](C)N2)OCCc2cc(Cl)sc23)n1 (racemic) [Compound 155],IC90,> 500 nM
same,Multi-Tox Assay Max Activity (%),95.2%
Cc1nc([C@@H]2C[C@]3(C[C@H](C)N2)OCCc2cc(Cl)sc23)c[nH]1 (racemic) [Compound 156],IC90,> 500 nM
same,Multi-Tox Assay Max Activity (%),93.0%
Cc1ncoc1[C@@H]1C[C@]2(C[C@H](C)N1)OCCc1cc(Cl)sc12 (racemic) [Compound 157],IC90,> 500 nM
same,Multi-Tox Assay Max Activity (%),96.3%
